Series [1] has as its system SARS-CoV-2. The series is described as follows: microbe, parasite or virus in culture. The series is classed as functional, organism-based, Chlorocebus sabaeus, Vero C1008. As to conditions: Severe acute respiratory syndrome coronavirus 2, Vero C1008, 48 h.
Series [2] has as its system SARS-CoV-2. Kind of series: microbe, parasite or virus in culture. To be noted: Severe acute respiratory syndrome coronavirus 2, Vero C1008, 48 h.
Another series is described as follows: in vitro. To be noted: chlorocebus sabaeus, Vero E6 (Vero C1008) cells.

Molecules are shown by their SMILES. Bounds are passed on as bounds.

For `c1ccc(CN(CCN(Cc2ccccn2)Cc2ccccn2)Cc2ccccn2)nc1`, the IC50 is greater than 100 µM in the series on SARS-CoV-2 [1] (read-out: IC50), greater than 100 µM in the series on SARS-CoV-2 [1] (read-out: pIC50 (converted)), greater than 3.09 µM with SARS-CoV-2 [2] and greater than 3.09 µM with SARS-CoV-2 [2] (read-out: pIC50 (converted)). The CC50 (as a rule, the concentration giving 50% cytotoxicity) at 48 h was 1.93 µM in “in vitro” (CC50) and 1.91 µM in the series “in vitro” (pCC50).

In the case of `O=C(NC1CN2CCC1CC2)c1cc(Cl)cc2c1OC1CCCCC21` (centres undefined), the IC50 is greater than 25.1 µM in the series with SARS-CoV-2 [1] (read-out: IC50), greater than 25.1 µM in the series on SARS-CoV-2 [1] (read-out: pIC50 (converted)), 7.94 µM in the series with SARS-CoV-2 [2] and 7.94 µM in the series with SARS-CoV-2 [2] (read-out: pIC50 (converted)). The CC50 at 48 h in “in vitro” (CC50) was 21.6 µM; in “in vitro” (pCC50), 21.4 µM.

For the compound `Cc1ccc(CCCO)c(NCc2ccc3nc(NCCCN4CCOCC4)n(Cc4nc(C)ccc4O)c3c2)c1`, the IC50 in the series with SARS-CoV-2 [1] (read-out: IC50), with SARS-CoV-2 [1] (read-out: pIC50 (converted)), with SARS-CoV-2 [2] and with SARS-CoV-2 [2] (read-out: pIC50 (converted)) was greater than 20 µM in each case. In addition, the CC50 at 48 h in the series “in vitro” (CC50) and in the series “in vitro” (pCC50) was 9.33 µM each time.

With `CC(=O)[C@@]12OC(C)(c3ccccc3)O[C@@H]1CC1C3CCC4=CC(=O)CCC4(C)C3CCC12C` (some centres undefined), the IC50 in the series on SARS-CoV-2 [1] (read-out: IC50) is greater than 12.6 µM; in the series on SARS-CoV-2 [1] (read-out: pIC50 (converted)), greater than 12.6 µM; with SARS-CoV-2 [2], greater than 100 µM; with SARS-CoV-2 [2] (read-out: pIC50 (converted)) it was greater than 100 µM. Moreover, the CC50 at 48 h in the series “in vitro” (CC50) and in the series “in vitro” (pCC50) was 15.5 µM each time.

For `COC(=O)C1C2CC3c4[nH]c5cc(OC)ccc5c4CCN3CC2CC(OC(=O)/C=C/c2cc(OC)c(OC)c(OC)c2)C1OC` (centres undefined), the IC50 is greater than 100 µM in the series with SARS-CoV-2 [1] (read-out: IC50), greater than 100 µM in the series on SARS-CoV-2 [1] (read-out: pIC50 (converted)), greater than 50.1 µM with SARS-CoV-2 [2] and greater than 50.1 µM with SARS-CoV-2 [2] (read-out: pIC50 (converted)). The CC50 at 48 h in the series “in vitro” (CC50) and in the series “in vitro” (pCC50) was 5.5 µM in each case.

As for `COC(=O)C1C2CC3c4[nH]c5ccccc5c4CCN3CC2CC(OC(=O)c2cc(OC)c(OC)c(OC)c2)C1OC` (centres undefined), the IC50 in the series with SARS-CoV-2 [1] (read-out: IC50) is greater than 25.1 µM; in the series with SARS-CoV-2 [1] (read-out: pIC50 (converted)), greater than 25.1 µM; in the series with SARS-CoV-2 [2], greater than 20 µM; in the series with SARS-CoV-2 [2] (read-out: pIC50 (converted)) it was greater than 20 µM. Moreover, the CC50 at 48 h in “in vitro” (CC50) and in the series “in vitro” (pCC50) was 11.5 µM each time.

`Cc1ccc(-c2nc3c(nc2-c2ccc(C)cc2)N(CCCCCCC(=O)O)CCC3)cc1`: the IC50 with SARS-CoV-2 [1] (read-out: IC50) was roughly 16.6 µM; in the series on SARS-CoV-2 [1] (read-out: pIC50 (converted)), roughly 16.6 µM; with SARS-CoV-2 [2], 17.4 µM; in the series on SARS-CoV-2 [2] (read-out: pIC50 (converted)), 17.4 µM. Besides, the CC50 at 48 h in the series “in vitro” (CC50) and in “in vitro” (pCC50) was 50.1 µM in each case.

Turning to `C#CC1(OC(C)=O)CCC2C3CCC4=C/C(=N/O)CCC4C3CCC21CC` (centres undefined), the IC50 with SARS-CoV-2 [1] (read-out: IC50), in the series with SARS-CoV-2 [1] (read-out: pIC50 (converted)), in the series on SARS-CoV-2 [2] and with SARS-CoV-2 [2] (read-out: pIC50 (converted)) was greater than 100 µM throughout. Also, the CC50 at 48 h in the series “in vitro” (CC50) and in “in vitro” (pCC50) was 20.9 µM in each case.

Take `C[C@H]1c2ccccc2[C@@H](CCCN(C)C)c2cc(C(F)(F)F)ccc21`: the IC50 with SARS-CoV-2 [1] (read-out: IC50) is 10.5 µM; with SARS-CoV-2 [1] (read-out: pIC50 (converted)) it was 10.5 µM; with SARS-CoV-2 [2] it was greater than 100 µM; in the series with SARS-CoV-2 [2] (read-out: pIC50 (converted)), greater than 100 µM. Besides, the CC50 at 48 h in the series “in vitro” (CC50) and in “in vitro” (pCC50) was 12 µM throughout.

With `CCN(CCO)CCC[C@@H](C)Nc1ccnc2cc(Cl)ccc12`, the IC50 was greater than 50.1 µM in the series on SARS-CoV-2 [1] (read-out: IC50), greater than 50.1 µM with SARS-CoV-2 [1] (read-out: pIC50 (converted)), 12.7 µM in the series on SARS-CoV-2 [2] and 12.6 µM with SARS-CoV-2 [2] (read-out: pIC50 (converted)). Further, the CC50 at 48 h in “in vitro” (CC50) and in the series “in vitro” (pCC50) was greater than 50.1 µM throughout.

As to `CC[C@H](C(=O)[C@H](C)[C@@H](O)[C@H](C)CCc1ccc(C)c(O)c1C(=O)O)[C@@H]1O[C@@](CC)([C@H]2CC[C@](O)(CC)[C@@H](C)O2)C[C@@H]1C`, the IC50 in the series on SARS-CoV-2 [1] (read-out: IC50) is 1.07 µM; with SARS-CoV-2 [1] (read-out: pIC50 (converted)), 1.07 µM; in the series on SARS-CoV-2 [2], greater than 0.631 µM; with SARS-CoV-2 [2] (read-out: pIC50 (converted)), greater than 0.631 µM. Moreover, the CC50 at 48 h in “in vitro” (CC50) and in the series “in vitro” (pCC50) was roughly 5.37 µM each time.

Consider `Cc1c(O)cccc1C(=O)N[C@@H](CSc1ccccc1)[C@H](O)CN1C[C@H]2CCCC[C@H]2C[C@H]1C(=O)NC(C)(C)C`, for which the IC50 in the series on SARS-CoV-2 [1] (read-out: IC50) was roughly 3.97 µM; with SARS-CoV-2 [1] (read-out: pIC50 (converted)), roughly 3.98 µM; in the series with SARS-CoV-2 [2], 5.22 µM; in the series with SARS-CoV-2 [2] (read-out: pIC50 (converted)), 5.25 µM. Further, the CC50 at 48 h in the series “in vitro” (CC50) and in the series “in vitro” (pCC50) was 11.2 µM each time.

In the case of `CO[C@H]1CC[C@H](n2c([C@H]3CCCC(=O)N3c3ccc(F)c(F)c3)nc3cc(-c4c(C)noc4C)ccc32)CC1` (relative stereo), the IC50 with SARS-CoV-2 [1] (read-out: IC50), with SARS-CoV-2 [1] (read-out: pIC50 (converted)), in the series with SARS-CoV-2 [2] and in the series on SARS-CoV-2 [2] (read-out: pIC50 (converted)) was greater than 100 µM each time. Moreover, the CC50 at 48 h in “in vitro” (CC50) and in the series “in vitro” (pCC50) was 9.12 µM each time.

As to `Nc1nc2nn[nH]c2c(=O)[nH]1` [8-AZAGUANINE], the IC50 in the series with SARS-CoV-2 [1] (read-out: IC50), with SARS-CoV-2 [1] (read-out: pIC50 (converted)), in the series on SARS-CoV-2 [2] and in the series on SARS-CoV-2 [2] (read-out: pIC50 (converted)) was greater than 50.1 µM in each case. The CC50 at 48 h in the series “in vitro” (CC50) was 23.7 µM; in the series “in vitro” (pCC50), 23.4 µM.

(Values after ChEMBL document CHEMBL4651402, “Screening of ~5500 FDA-approved drugs and clinical candidates for anti-SARS-CoV-2 activity” (2021).)
